Assay results taken from ChEMBL document CHEMBL1147794, “Synthesis and evaluation of two 18F-labeled imidazo[1,2-a]pyridine analogues as potential agents for imaging beta-amyloid in Alzheimer's disease” (Bioorg Med Chem Lett, 2006).
Activity calls are given as the source filed them. The rule behind the calls is not given here.

Experiments:
[1] = molecular target: Amyloid-beta precursor protein (Homo sapiens, UniProt P05067); assay: Displacement of [125I]IMPY from beta amyloid in human AD cortical tissue
[2] = Lipophilicity, Log P of the compound; format: physicochemical; details: octanol/water
[3] = tested on: Rhesus monkey; assay: Penetration into iv dosed rhesus monkey blood-brain barrier after 9 mins; format: functional, organism-based; details: Macaca mulatta, tested as the 18F-labelled form
[4] = tested on: Rhesus monkey; assay: Uptake in iv dosed rhesus monkey skull; format: functional, organism-based; details: Macaca mulatta; tested as the 18F-labelled form

Sequence of Amyloid-beta precursor protein (P05067 whole entry): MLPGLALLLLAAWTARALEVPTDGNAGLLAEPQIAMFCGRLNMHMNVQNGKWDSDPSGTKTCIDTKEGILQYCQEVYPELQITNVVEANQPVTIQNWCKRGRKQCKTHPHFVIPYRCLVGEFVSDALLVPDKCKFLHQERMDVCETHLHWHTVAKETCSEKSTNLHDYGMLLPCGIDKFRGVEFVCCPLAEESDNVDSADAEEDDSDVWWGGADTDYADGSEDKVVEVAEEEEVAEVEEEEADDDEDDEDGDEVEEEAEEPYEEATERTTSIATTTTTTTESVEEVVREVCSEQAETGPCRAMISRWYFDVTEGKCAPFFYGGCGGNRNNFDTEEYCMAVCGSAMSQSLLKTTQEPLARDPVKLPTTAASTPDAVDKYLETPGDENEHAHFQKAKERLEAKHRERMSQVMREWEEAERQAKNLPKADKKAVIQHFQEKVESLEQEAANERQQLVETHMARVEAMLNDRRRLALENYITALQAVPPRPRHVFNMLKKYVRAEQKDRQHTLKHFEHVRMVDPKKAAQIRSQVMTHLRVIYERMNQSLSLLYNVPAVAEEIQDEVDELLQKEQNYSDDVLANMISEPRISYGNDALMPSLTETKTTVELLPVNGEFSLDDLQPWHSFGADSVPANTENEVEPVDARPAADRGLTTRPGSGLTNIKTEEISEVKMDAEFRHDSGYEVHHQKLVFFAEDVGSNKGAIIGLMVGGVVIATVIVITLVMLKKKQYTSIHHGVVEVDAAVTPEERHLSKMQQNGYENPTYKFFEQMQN

Row | Ki [1] [nM] | logP [2] | SMILES | Activity [3] | Activity [4]
1 | 48.3 | 2.84 | CN(C)c1ccc(-c2cn3cc(CCCF)ccc3n2)cc1 | Active | inactive
2 | 177 | 2.42 | CN(C)c1ccc(-c2cn3cc(CCF)ccc3n2)cc1 |  | 
3 |  | 3.58 | CN(C)c1ccc(-c2cn3cc(I)ccc3n2)cc1 |  | 
